Where a name gives a salt, the structure may show the parent alone.
Biological target: influenza A neuraminidase
Assay: Radiolabeled-substrate neuraminidase inhibition assay (hydrolysis of 14C-labeled αDNeuAc(2-6)βDGal(1-4)DGlcNAc, A)
Assay type: biochemical, influenza A virus
Details: substrate A at 1.0-8.0 mM; inhibitor 0.07, 0.14, 0.28 mM; 100 mM NaOAc-5 mM Na2HPO4 pH 5.5; 37° C.; from Lineweaver-Burk plots; read-out: inhibition constant Ki
Description: In order to determine the effectiveness of the instant thiosialosides as neuraminidase inhibitors, incubations were performed involving the neuraminidase, the thiosialoside inhibitor and a ^14 C-labeled substrate, ^14 C-labeled αDNeuAc (2-6) βDGal (1-4) DGlcNAc (A).
Inhibition constants of the inhibitors were determined by incubating (37° C.) a solution of A at four different concentrations with the neuraminidase, in the presence or absence of the inhibitors. After the reaction, the reaction mixture was diluted with deionized water and passed through a column of Dowex resin. The column was further eluted with deionized water. Under these conditions, only the free LacNAc elutes. The eluant was diluted with Scintillation fluid (10 mL, Formula 989, NEN, MA) and the radioactivity was measured, and the amount of free LacNAc liberated was determined.
The activity of neuraminidase was measured with a radiolabeled substrate. […]
The neuraminidase concentration was 53 ug of influenza A virus in 60 uL of total reaction volume. […] The eluant was diluted with Scintillation fluid (10 mL), Formula 989, NEN, MA) and the radioactivity was measured for 2 or 5 min with a Liquid Scintillation counter. From the Lineweaver-Burk plots for the hydrolysis of A the inhibition constant Ki was calculated according to methods known in the art.

| SMILES | Ki [µM] |
| --- | --- |
| CC(=O)NC1C(N)CC(OCC2OC(O)C(O)C(O)C2O)(C(=O)O)OC1C(O)C(O)CO [Compound 12, Sodium Salt of 5-acetamido-4-amino-3,4,5-trideoxy-D-glycero-D-galacto-nonulopyranosylonicacid (2-6)-α-D-galacto-pyranose] | 100 |
| CC(=O)N[C@H]1[C@H]([C@H](O)[C@H](O)CO)O[C@@](S[C@H](C)[C@H]2OC(O)[C@H](O)[C@@H](O)[C@H]2O)(C(=O)O)C[C@@H]1N (stereo partly drawn) [Compound 14, Sodium Salt of 5-acetamido-4-amino-2-thio-3,4,5-trideoxy-D-glycero-D-galacto-nonulopyranosylonic acid(2-S-6)-7-deoxy-α,β-D-glycero-D-galacto-heptopyranose] | 51 |
